Converted amounts (≈) assume the structure as drawn. Bridge positions count the residues as written; N and C are the ends. Square brackets hold non-standard residues; d marks the D form. Peptide text beside a SMILES is read from it. * marks the point of attachment. Dab(CH2SO3H) = N[C@@H](CCNCS(=O)(=O)O)C(=O)O; Heptanoyl(6-Me) = CC(C)CCCCC(=O)*; dOrn = NCCC[C@@H](N)C(=O)O; X1 = CC[C@H](C)CCCCC(=O)*; Heptanoyl = CCCCCCC(=O)*; Octanoyl = CCCCCCCC(=O)*; Orn = NCCC[C@H](N)C(=O)O; Dab = NCC[C@H](N)C(=O)O; Dap = NC[C@H](N)C(=O)O
Key:
Type in all cases: cell-based
[1] = Nephrotoxicity assay: in vitro cytotoxicity of HK-2 cells by CCK-8 assay; conditions: human, HK-2 cells (human renal), 72 h incubation with drug-containing medium
Method in brief: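 HK-2 human renal cells in RPMI-1640 with 10% FBS were exposed to compounds at final 12.5–500 µg/mL for 72 h, then CCK-8 for 3 h and OD450 read. Viability was normalised to drug-free wells; IC50 came from logarithmic regression over three repeats, with polymyxin B as positive drug.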

[2] = test system: Pseudomonas aeruginosa ATCC 27853; conditions: ATCC 27853
Method in brief: (§1)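 Minimal inhibitory concentrations are measured following CLSI microdilution guidance in MH broth. Test concentrations run from 64 down to 0.03 mg/L in doubling steps, with a final bacterial load of (2-4) × 10^5 CFU/mL and 16-20 h incubation at 35-37°C.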

[3] = test system: Escherichia coli ATCC BAA-2523; conditions: ATCC BAA-2523
Method in brief: as §1

[4] = test system: Pseudomonas aeruginosa PAE19-3; conditions: PAE19-3
Method in brief: as §1

[5] = test system: Klebsiella pneumoniae ATCC BAA-1705 (KPC); conditions: ATCC BAA-1705
Method in brief: as §1

[6] = test system: Klebsiella pneumoniae KPN+19-15; conditions: KPN+19-15
Method in brief: as §1

[7] = test system: Escherichia coli ATCC BAA-2340 (KPC); conditions: ATCC BAA-2340
Method in brief: as §1

[8] = test system: Acinetobacter baumannii ABA19-1; conditions: ABA19-1
Method in brief: as §1

[9] = test system: Acinetobacter baumannii NCTC 13304 (OXA-27); conditions: NCTC 13304
Method in brief: as §1

Compound | IC50 at 72 h [1] | MIC [2] | MIC [3] | MIC [4] | MIC [5] | MIC [6] | MIC [7] | MIC [8] | MIC [9]
CC(C)CCCCC(=O)N[C@@H](CCNCS(=O)(=O)O)C(=O)N[C@H](C(=O)N[C@H](CO)C(=O)N[C@H]1CCNC(=O)[C@H]([C@@H](C)O)NC(=O)[C@H](CCN)NC(=O)[C@H](CCN)NC(=O)[C@H]([C@@H](C)O)NC(=O)[C@@H](Cc2ccccc2)NC(=O)[C@H](CCN)NC1=O)[C@@H](C)O [Compound 108, 6-methylheptanoyl-Dab(CH2SO3H)-Thr-D-Ser-ring(4-10)[Dab-Dab-D-Phe-Thr-Dab-Dab-Thr]] ({Heptanoyl(6-Me)}-[Dab(CH2SO3H)]T[dS][Dab][Dab][dF]T[Dab][Dab]T; lactam 4-C) | > 500 µg/mL | 0.25 µg/mL (≈ 0.199 µM) | 0.06 µg/mL (≈ 0.0477 µM) | 0.5 µg/mL (≈ 0.397 µM) | 0.125 µg/mL (≈ 0.0993 µM) | 0.125 µg/mL (≈ 0.0993 µM) | 0.06 µg/mL (≈ 0.0477 µM) | 0.25 µg/mL (≈ 0.199 µM) | 0.06 µg/mL (≈ 0.0477 µM)
CCCCCCCC(=O)N[C@@H](CCN)C(=O)N[C@H](C(=O)N[C@H](CCCN)C(=O)N[C@H]1CCNC(=O)[C@H]([C@@H](C)O)NC(=O)[C@H](CCN)NC(=O)[C@H](CCN)NC(=O)[C@H](CC(C)C)NC(=O)[C@@H](Cc2ccccc2)NC(=O)[C@H](CCN)NC1=O)[C@@H](C)O [Compound 43, Octanoyl-Dab-Thr-D-Orn-ring(4-10)[Dab-Dab-D-Phe-Leu-Dab-Dab-Thr]] (Octanoyl-[Dab]T[dOrn][Dab][Dab][dF]L[Dab][Dab]T; lactam 4-C) | 328 ± 8.6 µg/mL (≈ 273 µM) | 0.25 µg/mL (≈ 0.208 µM) | 0.03 µg/mL (≈ 0.0249 µM) | 1 µg/mL (≈ 0.831 µM) | 0.06 µg/mL (≈ 0.0499 µM) | 0.125 µg/mL (≈ 0.104 µM) | 0.03 µg/mL (≈ 0.0249 µM) | 0.125 µg/mL (≈ 0.104 µM) | 0.06 µg/mL (≈ 0.0499 µM)
CCCCCCCC(=O)N[C@@H](CCN)C(=O)N[C@H](C(=O)N[C@H](CCCN)C(=O)N[C@H]1CCNC(=O)[C@H]([C@@H](C)O)NC(=O)[C@H](CCN)NC(=O)[C@H](CCN)NC(=O)[C@H]([C@@H](C)O)NC(=O)[C@@H](Cc2ccccc2)NC(=O)[C@H](CCN)NC1=O)[C@@H](C)O [Compound 23, Octanoyl-Dab-Thr-D-Orn-ring(4-10)[Dab-Dab-D-Phe-Thr-Dab-Dab-Thr]] (Octanoyl-[Dab]T[dOrn][Dab][Dab][dF]T[Dab][Dab]T; lactam 4-C) | > 500 µg/mL | 0.25 µg/mL (≈ 0.21 µM) | ≤0.03 µg/mL | 1 µg/mL (≈ 0.839 µM) | 0.06 µg/mL (≈ 0.0504 µM) | 0.125 µg/mL (≈ 0.105 µM) | ≤0.03 µg/mL | 0.125 µg/mL (≈ 0.105 µM) | 0.06 µg/mL (≈ 0.0504 µM)
CC[C@H](C)CCCCC(=O)N[C@@H](CCN)C(=O)N[C@H](C(=O)N[C@@H](CN)C(=O)N[C@H]1CCNC(=O)[C@H]([C@@H](C)O)NC(=O)[C@H](CCN)NC(=O)[C@H](CCN)NC(=O)[C@H](CC(C)C)NC(=O)[C@@H](Cc2ccccc2)NC(=O)[C@H](CCN)NC1=O)[C@@H](C)O [Compound 36, (S)-6-methyloctanoyl-Dab-Thr-Dap-ring(4-10)[Dab-Dab-D-Phe-Leu-Dab-Dab-Thr]] (X1-[Dab]T[Dap][Dab][Dab][dF]L[Dab][Dab]T; lactam 4-C) | 237 ± 5.3 µg/mL (≈ 199 µM) | 0.03 µg/mL (≈ 0.0252 µM) | 0.03 µg/mL (≈ 0.0252 µM) | 0.25 µg/mL (≈ 0.21 µM) | 0.03 µg/mL (≈ 0.0252 µM) | 0.03 µg/mL (≈ 0.0252 µM) | 0.03 µg/mL (≈ 0.0252 µM) | 0.03 µg/mL (≈ 0.0252 µM) | 0.03 µg/mL (≈ 0.0252 µM)
CCCCCCC(=O)N[C@@H](CCN)C(=O)N[C@H](C(=O)N[C@H](CO)C(=O)N[C@H]1CCNC(=O)[C@H]([C@@H](C)O)NC(=O)[C@H](CCN)NC(=O)[C@H](CN)NC(=O)[C@H]([C@@H](C)O)NC(=O)[C@@H](Cc2ccccc2)NC(=O)[C@H](CCN)NC1=O)[C@@H](C)O [Compound 74, Heptanoyl-Dab-Thr-D-Ser-ring(4-10)[Dab-Dab-D-Phe-Thr-Dap-Dab-Thr]] (Heptanoyl-[Dab]T[dS][Dab][Dab][dF]T[Dap][Dab]T; lactam 4-C) | > 500 µg/mL | >64 µg/mL | 0.06 µg/mL (≈ 0.0528 µM) | 64 µg/mL (≈ 56.3 µM) | 0.25 µg/mL (≈ 0.22 µM) | 0.5 µg/mL (≈ 0.44 µM) | 0.06 µg/mL (≈ 0.0528 µM) | 0.06 µg/mL (≈ 0.0528 µM) | 0.03 µg/mL (≈ 0.0264 µM)
CCCCCCCC(=O)N[C@@H](CCCN)C(=O)N[C@H](C(=O)N[C@H](CO)C(=O)N[C@H]1CCNC(=O)[C@H]([C@@H](C)O)NC(=O)[C@H](CCN)NC(=O)[C@H](CCN)NC(=O)[C@H]([C@@H](C)O)NC(=O)[C@@H](Cc2ccccc2)NC(=O)[C@H](CCN)NC1=O)[C@@H](C)O [Compound 58, Octanoyl-Orn-Thr-D-Ser-ring(4-10)[Dab-Dab-D-Phe-Thr-Dab-Dab-Thr]] (Octanoyl-[Orn]T[dS][Dab][Dab][dF]T[Dab][Dab]T; lactam 4-C) | > 500 µg/mL | 64 µg/mL (≈ 54.3 µM) | 0.125 µg/mL (≈ 0.106 µM) | 4 µg/mL (≈ 3.39 µM) | 0.25 µg/mL (≈ 0.212 µM) | 0.5 µg/mL (≈ 0.424 µM) | 0.125 µg/mL (≈ 0.106 µM) | 0.25 µg/mL (≈ 0.212 µM) | 0.25 µg/mL (≈ 0.212 µM)
CC[C@H](C)CCCCC(=O)N[C@@H](CCCN)C(=O)N[C@H](C(=O)N[C@H](CO)C(=O)N[C@H]1CCNC(=O)[C@H]([C@@H](C)O)NC(=O)[C@H](CCN)NC(=O)[C@H](CCN)NC(=O)[C@H]([C@@H](C)O)NC(=O)[C@@H](Cc2ccccc2)NC(=O)[C@H](CCN)NC1=O)[C@@H](C)O [Compound 56, (S)-6-methyloctanoyl-Orn-Thr-D-Ser-ring(4-10)[Dab-Dab-D-Phe-Thr-Dab-Dab-Thr]] (X1-[Orn]T[dS][Dab][Dab][dF]T[Dab][Dab]T; lactam 4-C) | > 500 µg/mL | 64 µg/mL (≈ 53.7 µM) | 0.125 µg/mL (≈ 0.105 µM) | 4 µg/mL (≈ 3.35 µM) | 0.25 µg/mL (≈ 0.21 µM) | 0.5 µg/mL (≈ 0.419 µM) | 0.125 µg/mL (≈ 0.105 µM) | 0.25 µg/mL (≈ 0.21 µM) | 0.25 µg/mL (≈ 0.21 µM)
CC[C@H](C)CCCCC(=O)N[C@@H](CCN)C(=O)N[C@H](C(=O)N[C@@H](CCCN)C(=O)N[C@H]1CCNC(=O)[C@H]([C@@H](C)O)NC(=O)[C@H](CCN)NC(=O)[C@H](CCN)NC(=O)[C@H]([C@@H](C)O)NC(=O)[C@@H](Cc2ccccc2)NC(=O)[C@H](CCN)NC1=O)[C@@H](C)O [Compound 26, (S)-6-methyloctanoyl-Dab-Thr-Orn-ring(4-10)[Dab-Dab-D-Phe-Thr-Dab-Dab-Thr]] (X1-[Dab]T[Orn][Dab][Dab][dF]T[Dab][Dab]T; lactam 4-C) | > 500 µg/mL | ≤0.03 µg/mL | ≤0.03 µg/mL | 0.25 µg/mL (≈ 0.207 µM) | ≤0.03 µg/mL | ≤0.03 µg/mL | ≤0.03 µg/mL | 0.125 µg/mL (≈ 0.104 µM) | 0.06 µg/mL (≈ 0.0498 µM)
CC(C)CCCCC(=O)N[C@@H](CCN)C(=O)N[C@H](C(=O)N[C@@H](CN)C(=O)N[C@H]1CCNC(=O)[C@H]([C@@H](C)O)NC(=O)[C@H](CCN)NC(=O)[C@H](CCNCS(=O)(=O)O)NC(=O)[C@H]([C@@H](C)O)NC(=O)[C@@H](Cc2ccccc2)NC(=O)[C@H](CCN)NC1=O)[C@@H](C)O [Compound 119, 6-methylheptanoyl-Dab-Thr-Dap-ring(4-10)[Dab-Dab-D-Phe-Thr-Dab(CH2SO3H)-Dab-Thr]] ({Heptanoyl(6-Me)}-[Dab]T[Dap][Dab][Dab][dF]T[Dab(CH2SO3H)][Dab]T; lactam 4-C) | > 500 µg/mL | 0.25 µg/mL (≈ 0.199 µM) | 0.06 µg/mL (≈ 0.0477 µM) | 0.5 µg/mL (≈ 0.398 µM) | 0.125 µg/mL (≈ 0.0994 µM) | 0.125 µg/mL (≈ 0.0994 µM) | 0.06 µg/mL (≈ 0.0477 µM) | 0.25 µg/mL (≈ 0.199 µM) | 0.06 µg/mL (≈ 0.0477 µM)
